{
  "source": "patent EP4800015A1",
  "about": "“AZABICYCLO DERIVATIVE AND PREPARATION METHOD THEREFOR, AND USE” (Zhejiang Hisun Pharmaceutical Co., Ltd., priority 2023, dated 2025)",
  "data": [
    {"biological_target": "T1, recombinant human WRN (Homo sapiens, UniProt Q14191)", "T1 construct": "purchased BPS 101264", "experiment": "Inhibition of WRN enzyme activity (ATPase), ADP-Glo Kinase Assay", "assay_type": "biochemical", "conditions": "WRN protein 5 nM, Flap 0.1 nM, ATP 30 µM", "from_the_text": "(§1) The following method was used to determine the degree of inhibition of recombinant human WRN ATPase activity by the compounds of the present disclosure in vitro. In this method, ADP-Glo™ Kinase Assay kit (catalog No. V9102) from Promega was used. Detailed experimental procedures can be found in the kit manual.\n(§2) The experimental procedure was briefly described as follows: test compounds were first dissolved in DMSO to prepare stock solutions, followed by serial dilution using reaction buffer (30 mM Tris, pH 7.5, 2 mM MgCl2, 50 mM NaCl, 0.02% BSA, 0.1% Pluronic F127), with final concentrations of test compounds in the reaction system ranging from 1000 nM to 0.004 nM; WRN protein (purchased from BPS, catalog No. 101264), substrate 5-flap oligonucleotide (Flap26) (synthesized by Shanghai Generay Biotech Co., Ltd., sequence 5'-[…]-3'), and ATP working solution (from ADP-Glo™ Kinase Assay kit component V915A) were prepared using reaction buffer. Reactions were performed in 384-well microplates. At first the compounds and recombinant human WRN protein (final concentration 5 nM) were added to the wells and the plate was incubated at room temperature for 15 minutes, then Flap solution (final concentration 0.1 nM) and ATP solution (final concentration 30 µM) were added to the reaction solution and the plate was incubated at room temperature for 10 minutes. Subsequently, 5 µL of ADP-Glo Reagent was added to the reaction system and incubated at room temperature for 40 minutes. Then 10 µL of Kinase Detection Reagent was added to the reaction system and incubated at room temperature for 30 minutes. After the incubation was completed, chemiluminescence intensity values of each well were measured using a microplate reader in luminescence mode. The percentage inhibition of the compounds at each concentration was calculated by comparison with the luminescence intensity values of the control group (0.1% DMSO), and IC50 values of compounds were obtained by nonlinear regression analysis of compound concentration logarithm-inhibition rate using GraphPad Prism 9 software, as shown in Table 1.\n(§3) The IC50 value results of the compounds of the present disclosure are expressed as AA and A, respectively as follows: \"AA\" indicates IC50 ≤ 1 nM; \"A\" indicates 1 nM < IC50 ≤ 100 nM. Table 1 IC50 of the compounds of the present disclosure for inhibiting WRN enzyme activity (ATPase)", "units": {"IC50": "nM"}, "values": [
      {"smiles": "CCc1c(N2CCN(C(=O)c3ncnc(C)c3O)CC2)c(=O)n2nc(C3=C[C@H]4C[C@H]4C3)nc2n1CC(=O)Nc1ccc(S(F)(F)(F)(F)F)cc1", "note": "[Example 196, 2-(2-((1S,5S)-bicyclo[3.1.0]hex-2-en-3-yl)-5-ethyl-6-(4-(5-hydroxy-6-methylpyrimidine-4-carbonyl)piperazin-1-yl)-7-oxo-[1,2,4]triazolo[1,5-a]pyrimidin-4(7H)-yl)-N-(4-(pentafluoro-λ6-sulfaneyl)phenyl)acetamide]", "IC50": "1 to 100"}
    ]},
    {"biological_target": "T1, recombinant human WRN", "experiment": "Inhibition of WRN enzyme activity (ATPase), ADP-Glo Kinase Assay", "assay_type": "biochemical", "conditions": "WRN protein 5 nM, Flap 0.1 nM, ATP 30 µM; read-out: IC50", "from_the_text": "as §1, §2, §3", "units": {"IC50": "nM"}, "values": [
      {"smiles": "CCc1c(N2CCC(NC(=O)c3ncnc(C)c3O)CC2)c(=O)n2nc(-c3ccc4c(c3)CCO4)nc2n1CC(=O)Nc1ccc(C(F)(F)F)cc1Cl", "note": "[Example 108, N-(1-(4-(2-((2-chloro-4-(trifluoromethyl)phenyl)amino)-2-oxoethyl)-2-(2,3-dihydrobenzofuran-5-yl)-5-ethyl-7-oxo-4,7-dihydro-[1,2,4]triazolo[1,5-a]pyrimidin-6-yl)piperidin-4-yl)-5-hydroxy-6-methylpyrimidine-4-carboxamide]", "IC50": "1 to 100"},
      {"smiles": "CCc1c(N2CCN(C(=O)c3ncnc(C)c3O)CC2)c(=O)n2nc(NCCCCl)nc2n1CC(=O)Nc1ccc(C(F)(F)F)cc1Cl", "note": "[Example 15, N-(2-chloro-4-(trifluoromethyl)phenyl)-2-(2-((3-chloropropyl)amino)-5-ethyl-6-(4-(5-hydroxy-6-methylpyrimidine-4-carbonyl)piperazin-1-yl)-7-oxo-[1,2,4]triazolo[1,5-a]pyrimidin-4(7H)-yl)ace tamide]", "IC50": "1 to 100"},
      {"smiles": "CCc1c(N2CCN(C(=O)c3ncnc(C)c3O)CC2)c(=O)n2nc(C3=CC4(CCNCC4)C3)nc2n1CC(=O)Nc1ccc(C(F)(F)F)cc1Cl", "note": "[Example 143, N-(2-chloro-4-(trifluoromethyl)phenyl)-2-(5-ethyl-6-(4-(5-hydroxy-6-methylpyrimidine-4-carbonyl)piperazin-1-yl)-7-oxo-2-(7-azaspiro[3.5]non-1-en-2-yl)-[1,2,4]triazolo[1,5-a]pyrimidin-4(7H)-yl)acetamide]", "IC50": "1 to 100"},
      {"smiles": "CCc1c(N2CCN(C(=O)c3ncnc(C)c3O)CC2)c(=O)n2nc(C3CCCCC3)nc2n1CC(=O)Nc1ccc(C(F)(F)F)cc1Cl", "note": "[Example 12, N-(2-Chloro-4-(trifluoromethyl)phenyl)-2-(2-cyclohexyl-5-ethyl-6-(4-(5-hydroxy-6-methylpyrimidine-4-carbonyl)piperazin-1-yl)-7-oxo-[1,2,4]triazolo[1,5-a]pyrimidin-4(7H)-yl)acetamide]", "IC50": "1 to 100"},
      {"smiles": "CCc1c(N2CCN(C(=O)c3ncccc3O)CC2)c(=O)n2nc(-c3cc4ccccc4s3)nc2n1CC(=O)Nc1ccc(C(F)(F)F)cc1Cl", "note": "[Example 79, 2-(2-(benzo[b]thiophen-2-yl)-5-ethyl-6-(4-(3-hydroxypicolinoyl)piperazin-1-yl)-7-oxo-[1,2,4]triazolo[1,5-a]pyrimidin-4(7H)-yl)-N-(2-chloro-4-(trifluoromethyl)phenyl)acetamide]", "IC50": "1 to 100"},
      {"smiles": "CCc1c(N2CCN(C(=O)c3ncnc(C)c3O)CC2)c(=O)n2nc(C(C)=C3CCC3)nc2n1CC(=O)Nc1ccc(C(F)(F)F)cc1Cl", "note": "[Example 60, N-(2-chloro-4-(trifluoromethyl)phenyl)-2-(2-(1-cyclobutylideneethyl)-5-ethyl-6-(4-(5-hydroxy-6-methylpyrimidine-4-carbonyl)piperazin-1-yl)-7-oxo-[1,2,4]triazolo[1,5-a]pyrimidin-4(7H)-yl)ace tamide]", "IC50": "1 to 100"},
      {"smiles": "CCc1c(N2CCN(C(=O)c3ncccc3O)CC2)c(=O)n2nc(C3=CC4CC4C3)nc2n1CC(=O)Nc1ccc(C(F)(F)F)cc1Cl", "note": "(stereo not drawn) [Example 38, 2-(2-(bicyclo[3.1.0]hex-2-en-3-yl)-5-ethyl-6-(4-(3-hydroxypicolinoyl)piperazin-1-yl)-7-oxo-[1,2, 4]triazolo[1,5-a]pyrimidin-4(7H)-yl)-N-(2-chloro-4-(trifluoromethyl)phenyl)acetamide]", "IC50": "< 1"},
      {"smiles": "CCc1c(N2CCN(C(=O)c3ncnc(C)c3O)CC2)c(=O)n2nc(C3=CCCCCC3)nc2n1CC(=O)Nc1ccc(C(C)(C)C)cc1", "note": "[Example 26, N-(4-(tert-Butyl)phenyl)-2-(2-(cyclohept-1-en-1-yl)-5-ethyl-6-(4-(5-hydroxy-6-methylpyrimidine-4-carbonyl)piperazin-1-yl)-7-oxo-[1,2,4]triazolo[1,5-a]pyrimidin-4(7H)-yl)acetamide]", "IC50": "1 to 100"},
      {"smiles": "CCc1c(N2CCN(C(=O)c3ncnc(C)c3O)CC2)c(=O)n2nc(C3=CC4CCC3C4)nc2n1CC(=O)Nc1ccc(C(F)(F)F)cc1Cl", "note": "(stereo not drawn) [Example 23, 2-(2-(bicyclo[2.2.1]hept-2-en-2-yl)-5-ethyl-6-(4-(5-hydroxy-6-methylpyrimidine-4-carbonyl)piperazin-1-yl)-7-oxo-[1,2,4]triazolo[1,5-a]pyrimidin-4(7H)-yl)-N-(2-chloro-4-(trifluoromethyl)phenyl)acetamide]", "IC50": "1 to 100"},
      {"smiles": "CCO/C=C/c1nc2n(CC(=O)Nc3ccc(C(F)(F)F)cc3Cl)c(CC)c(N3CCN(C(=O)c4ncnc(C)c4O)CC3)c(=O)n2n1", "note": "[Example 193, (E)-N-(2-chloro-4-(trifluoromethyl)phenyl)-2-(2-(2-ethoxyvinyl)-5-ethyl-6-(4-(5-hydroxy-6-methylpyrimidine-4-carbonyl)piperazin-1-yl)-7-oxo-[1,2,4]triazolo[1,5-a]pyrimidin-4(7H)-yl)acetamide]", "IC50": "1 to 100"},
      {"smiles": "CCc1c(N2CCN(C(=O)c3ncnc(C)c3O)CC2)c(=O)n2nc(-c3ccc4c(c3)CCO4)nc2n1CC(=O)Nc1ccc(SC(F)F)cc1Cl", "note": "[Example 148, N-(2-chloro-4-((difluoromethyl)thio)phenyl)-2-(2-(2,3-dihydrobenzofuran-5-yl)-5-ethyl-6-(4-(5-hydroxy-6-methylpyrimidine-4-carbonyl)piperazin-1-yl)-7-oxo-[1,2,4]triazolo[1,5-a]pyrimidin-4(7 H)-yl)acetamide]", "IC50": "1 to 100"},
      {"smiles": "CCc1c(N2CCN(C(=O)c3ncccc3O)CC2)c(=O)n2nc(-c3cc4ccccc4o3)nc2n1CC(=O)Nc1ccc(C(F)(F)F)cc1Cl", "note": "[Example 75, 2-(2-(benzofuran-2-yl)-5-ethyl-6-(4-(3-hydroxypicolinoyl)piperazin-1-yl)-7-oxo-[1,2,4]triazolo[1 ,5-a]pyrimidin-4(7H)-yl)-N-(2-chloro-4-(trifluoromethyl)phenyl)acetamide]", "IC50": "1 to 100"},
      {"smiles": "CCc1c(N2CCN(C(=O)c3cccc(C)c3O)CC2)c(=O)n2nc(C3=CCCCCC3)nc2n1CC(=O)Nc1ccc(C(F)(F)F)cc1Cl", "note": "[Example 11, N-(2-Chloro-4-(trifluoromethyl)phenyl)-2-(2-(cyclohept-1-en-1-yl)-5-ethyl-6-(4-(2-hydroxy-3-methylbenzoyl)piperazin-1-yl)-7-oxo-[1,2,4]triazolo[1,5-a]pyrimidin-4(7H)-yl)acetamide]", "IC50": "1 to 100"},
      {"smiles": "CCc1c(N2CCN(C(=O)c3ncnc(C)c3O)CC2)c(=O)n2nc(/C=C/C(=O)N(C)C)nc2n1CC(=O)Nc1ccc(C(F)(F)F)cc1Cl", "note": "[Example 182, (E)-3-(4-(2-((2-chloro-4-(trifluoromethyl)phenyl)amino)-2-oxoethyl)-5-ethyl-6-(4-(5-hydroxy-6-methylpyrimidine-4-carbonyl)piperazin-1-yl)-7-oxo-4,7-dihydro-[1,2,4]triazolo[1,5-a]pyrimidin-2-yl)-N,N-dimethylacrylamide]", "IC50": "1 to 100"},
      {"smiles": "CCc1c(N2CCN(C(=O)c3ncnc(C)c3O)CC2)c(=O)n2nc(C#CC3CC3)nc2n1CC(=O)Nc1ccc(C(F)(F)F)cc1Cl", "note": "[Example 173, N-(2-chloro-4-(trifluoromethyl)phenyl)-2-(2-(cyclopropylethynyl)-5-ethyl-6-(4-(5-hydroxy-6-methylpyrimidine-4-carbonyl)piperazin-1-yl)-7-oxo-[1,2,4]triazolo[1,5-a]pyrimidin-4(7H)-yl)acetamide]", "IC50": "1 to 100"},
      {"smiles": "CCc1c(N2CCN(C(=O)c3ncnc(C)c3O)CC2)c(=O)n2nc(N3CCCCCC3)nc2n1CC(=O)Nc1ccc(C(F)(F)F)cc1Cl", "note": "[Example 3, 2-(2-(Azepan-1-yl)-5-ethyl-6-(4-(5-hydroxy-6-methylpyrimidine-4-carbonyl)piperazin-1-yl)-7-oxo-[1,2,4]triazolo[1,5-a]pyrimidin-4(7H)-yl)-N-(2-chloro-4-(trifluoromethyl)phenyl)acetamide]", "IC50": "1 to 100"},
      {"smiles": "CCc1c(N2CCN(C(=O)c3ncnc(C)c3O)CC2)c(=O)n2nc(-c3ccc4sc(C)nc4c3)nc2n1CC(=O)Nc1ccc(C(F)(F)F)cc1Cl", "note": "[Example 110, N-(2-chloro-4-(trifluoromethyl)phenyl)-2-(5-ethyl-6-(4-(5-hydroxy-6-methylpyrimidine-4-carbonyl)piperazin-1-yl)-2-(2-methylbenzo[d]thiazol-5-yl)-7-oxo-[1,2,4]triazolo[1,5-a]pyrimidin-4(7H)-yl)acetamide]", "IC50": "1 to 100"}
    ]}
  ]
}
